Source: the NIST ThermoML archive (doi:10.1016/j.jct.2004.09.015)

Settings: Liquid, Closed cell (Static) method

CC(=O)N(C)C [N,N-dimethylethanamide]
Settings | vapor or sublimation pressure [kPa]
323.15 K | 1.158
333.15 K | 1.982
343.15 K | 3.271
353.15 K | 5.193
363.15 K | 8
373.15 K | 12
383.15 K | 17.55
393.15 K | 25.03
403.15 K | 35.04
413.15 K | 48.09
423.15 K | 64.73
